Laboratory results: patent US12252524B2, “GIP/GLP1 co-agonist compounds” (Eli Lilly and Company, priority 2018, dated 2025)
Numbered stars: 1 amine (or outer) side, 2 acyl side, 3 side chain; on linkers, the order of the positions; unused ones are H or OH. Square brackets hold non-standard residues; d marks the D form. Side chains are listed from the residue outwards. Peptide text beside a SMILES is read from it. * marks the point of attachment. C20 diacid = O=C(O)CCCCCCCCCCCCCCCCCCC(=O)*; γGlu = O=C(O)[C@H](CCC(=O)[*:2])N[*:1]; αMeL = CC(C)C[C@](C)(N)C(=O)O; AEEA = NCCOCCOCC(=O)O; Aib = CC(C)(N)C(=O)O

How the values were obtained:
human GLP-1R [1] = target: T1, human GLP-1R (Homo sapiens, UniProt P43220); experiment: GLP-1R CHO cell β-arrestin recruitment assay; assay type: cell-based; parameters: host or cells: CHO-K1 PathHunter cells, assay-ready frozen; details: for EC50: CHO-K1 cells, PathHunter β-arrestin-2 recruitment, 0.1% casein, read-out: hGLP1R B-Arrestin2 Rel EC50 uM (SEM, n); for hGLP1R B-Arrestin2 % Top: normalized to GLP-1 maximum control
T1 sequence (P43220 24-463): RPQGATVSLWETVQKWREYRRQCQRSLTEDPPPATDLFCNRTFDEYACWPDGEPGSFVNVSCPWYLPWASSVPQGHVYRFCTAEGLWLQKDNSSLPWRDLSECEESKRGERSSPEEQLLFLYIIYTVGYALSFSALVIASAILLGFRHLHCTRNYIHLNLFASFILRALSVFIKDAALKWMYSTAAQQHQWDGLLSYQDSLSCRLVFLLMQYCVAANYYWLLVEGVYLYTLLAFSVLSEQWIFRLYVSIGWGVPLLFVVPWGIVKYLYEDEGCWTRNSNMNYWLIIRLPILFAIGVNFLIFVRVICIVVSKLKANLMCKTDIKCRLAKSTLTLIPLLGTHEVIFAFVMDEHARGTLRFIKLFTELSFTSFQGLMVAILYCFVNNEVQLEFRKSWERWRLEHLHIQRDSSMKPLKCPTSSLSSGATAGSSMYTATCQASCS
How it was run: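 Peptide-induced β-arrestin-2 recruitment measured by enzyme-fragment complementation luminescence after 90 min at 37 °C plus 60 min detection at RT.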

[2] = target: T2, gastric inhibitory peptide receptor (GIPR) (Homo sapiens, UniProt P48546); experiment: cAMP pharmacological functional assay in presence of casein, hGIPR; assay type: cell-based; details: HEK293 cells expressing hGIPR, 0.1% Casein, geometric mean; read-out: hGIPR cAMP Rel EC50 nM (SEM, n)
T2 sequence (P48546 22-466): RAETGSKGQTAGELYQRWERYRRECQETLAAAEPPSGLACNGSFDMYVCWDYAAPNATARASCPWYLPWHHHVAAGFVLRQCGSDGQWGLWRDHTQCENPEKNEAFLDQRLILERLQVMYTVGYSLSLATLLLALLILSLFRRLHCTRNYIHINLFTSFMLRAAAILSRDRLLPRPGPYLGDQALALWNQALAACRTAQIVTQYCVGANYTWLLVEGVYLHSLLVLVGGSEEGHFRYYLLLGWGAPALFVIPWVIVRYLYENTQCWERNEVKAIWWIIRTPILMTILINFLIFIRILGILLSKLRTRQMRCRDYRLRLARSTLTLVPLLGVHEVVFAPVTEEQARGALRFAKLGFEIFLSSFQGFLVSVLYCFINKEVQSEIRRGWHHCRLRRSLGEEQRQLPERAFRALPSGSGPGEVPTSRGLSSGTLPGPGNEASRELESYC

human GLP-1R [3] = target: T1, human GLP-1R; experiment: [125I]-GLP-1 binding (SPA), human GLP-1 receptor; parameters: expressed in transfected cells; crude membranes; details: read-out: hGLP1R Ki, (nM) (SEM, n)
How it was run: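 Ki values are geometric means with SEM over independent replicates on different days, derived from IC50s fitted by four-parameter nonlinear regression. The assay used crude cell membranes in HEPES buffer, pH 7.4, containing CaCl2, MgCl2, bacitracin and TWEEN-20.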

human GIP receptor = target: T3, human GIP receptor (Homo sapiens, UniProt P48546); experiment: [125I]-GIP binding (SPA), human GIP receptor; details: read-out: hGIPR Ki, nM (SEM, n)
T3 construct: expressed in transfected cells; crude membranes
T3 sequence (P48546 22-466): T2 sequence (P48546 22-466)

human Gcg receptor = target: T4, human Gcg receptor (Homo sapiens, UniProt P47871); experiment: [125I]-Glucagon binding (SPA), human Gcg receptor; details: read-out: hGLcgR Ki, nM (SEM, n)
T4 construct: expressed in transfected cells; crude membranes
T4 sequence (P47871 26-477): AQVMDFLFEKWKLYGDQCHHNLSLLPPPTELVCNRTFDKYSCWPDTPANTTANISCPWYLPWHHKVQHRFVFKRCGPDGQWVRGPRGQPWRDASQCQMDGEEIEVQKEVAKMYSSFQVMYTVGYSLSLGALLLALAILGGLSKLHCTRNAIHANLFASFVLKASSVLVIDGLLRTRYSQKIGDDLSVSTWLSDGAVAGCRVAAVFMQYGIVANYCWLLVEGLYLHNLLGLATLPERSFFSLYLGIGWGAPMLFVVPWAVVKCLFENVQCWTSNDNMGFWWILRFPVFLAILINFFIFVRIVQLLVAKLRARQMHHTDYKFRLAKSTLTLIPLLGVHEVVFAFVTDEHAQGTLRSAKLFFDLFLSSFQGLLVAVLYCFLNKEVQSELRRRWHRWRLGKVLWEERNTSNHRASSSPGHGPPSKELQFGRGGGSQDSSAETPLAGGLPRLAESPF
How it was run: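 Crude membranes from cells expressing the receptor, prepared by hypotonic lysis in 50 mM Tris HCl pH 7.5 with protease inhibitors, homogenization and differential centrifugation, were used in a WGA-bead SPA. Binding buffer: 25 mM HEPES pH 7.4, 2.5 mM CaCl2, 1 mM MgCl2, bacitracin, Tween-20.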

[4] = target: human GLP-1 receptor (GLP-1R) (Homo sapiens, UniProt P43220); experiment: cAMP pharmacological functional assay in presence of casein, hGLP-1R; assay type: cell-based; details: HEK293 cells expressing hGLP-1R, 0.1% Casein, geometric mean; read-out: hGLP1R cAMP Rel EC50 nM (SEM, n)
Chain of human GLP-1 receptor (GLP-1R) (P43220 24-463): as the sequence (P43220 24-463) above

human GLP-1R [5] = target: T1, human GLP-1R; experiment: GLP-1R HEK293 cell membrane [35S]GTPγS binding assay; assay type: biochemical; parameters: expressed in transfected cells; host or cells: HEK293 cells expressing human GLP-1R; membranes; details: HEK293 cell membranes expressing human GLP-1R, [35S]GTPγS binding; read-out: hGLP1R GTPgS Rel EC50 nM (SEM, n)
How it was run: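 Agonist-driven Gαs activation read as [35S]GTPγS ([…]) binding to receptor-expressing HEK293 membranes, 30 min at room temperature, pH 7.4. Detection by anti-Gαs immunocapture on scintillation beads; EC50 derived from four-parameter logistic concentration-response fit.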

| Structure (SMILES) | EC50 (human GLP-1R [1]) [µM] | hGLP1R B-Arrestin2 % Top (human GLP-1R [1]) [%] | EC50 [2] [nM] | Ki (human GLP-1R [3]) [nM] | Ki (human GIP receptor) [nM] | Ki (human Gcg receptor) [nM] | EC50 [4] [nM] | EC50 (human GLP-1R [5]) [nM] |
| --- | --- | --- | --- | --- | --- | --- | --- | --- |
| CC[C@H](C)[C@H](NC(=O)[C@H](CC(C)C)NC(=O)[C@H](Cc1ccc(O)cc1)NC(=O)[C@H](CCC(=O)O)NC(=O)[C@@H](NC(=O)[C@H](Cc1ccccc1)NC(=O)[C@H](CCC(=O)O)NC(=O)C(C)(C)NC(=O)[C@H](CCC(N)=O)NC(=O)[C@H](C)NC(=O)[C@H](CCCCNC(=O)COCCOCCNC(=O)CC[C@H](NC(=O)CCCCCCCCCCCCCCCCCCC(=O)O)C(=O)O)NC(=O)[C@H](CCCCN)NC(=O)[C@H](CC(=O)O)NC(=O)[C@H](CC(C)C)NC(=O)[C@](C)(CC(C)C)NC(=O)[C@@H](NC(=O)[C@H](CO)NC(=O)[C@H](Cc1ccc(O)cc1)NC(=O)[C@H](CC(=O)O)NC(=O)[C@H](CO)NC(=O)[C@@H](NC(=O)[C@H](Cc1ccccc1)NC(=O)[C@@H](NC(=O)CNC(=O)[C@H](CCC(=O)O)NC(=O)C(C)(C)NC(=O)[C@@H](N)Cc1ccc(O)cc1)[C@@H](C)O)[C@@H](C)O)[C@@H](C)CC)[C@@H](C)CC)C(=O)N[C@@H](C)C(=O)NCC(=O)NCC(=O)N1CCC[C@H]1C(=O)N[C@@H](CO)C(=O)N[C@@H](CO)C(=O)NCC(=O)N[C@@H](C)C(=O)N1CCC[C@H]1C(=O)N1CCC[C@H]1C(=O)N1CCC[C@H]1C(=O)N[C@@H](CO)C(N)=O [Example 339] (H-Y[Aib]EGTFTSDYSI[αMeL]LDKK([AEEA-γGlu-C20 diacid])AQ[Aib]EFIEYLIAGGPSSGAPPPS-NH2) | 0.0107 | 44.0 | 0.0219 | 2.69 | 0.0388 | 873 | 0.0986 | 0.326 |
| CC[C@H](C)[C@H](NC(=O)[C@H](CC(C)C)NC(=O)[C@H](Cc1ccc(O)cc1)NC(=O)[C@H](CCC(=O)O)NC(=O)[C@@H](NC(=O)[C@H](Cc1ccccc1)NC(=O)[C@H](C)NC(=O)C(C)(C)NC(=O)[C@H](CCC(N)=O)NC(=O)[C@H](C)NC(=O)[C@H](CCCCNC(=O)COCCOCCNC(=O)COCCOCCNC(=O)CC[C@H](NC(=O)CCCCCCCCCCCCCCCCCCC(=O)O)C(=O)O)NC(=O)[C@H](CCCCN)NC(=O)[C@H](CC(=O)O)NC(=O)[C@H](CC(C)C)NC(=O)[C@](C)(CC(C)C)NC(=O)[C@@H](NC(=O)[C@H](CO)NC(=O)[C@H](Cc1ccc(O)cc1)NC(=O)[C@H](CC(=O)O)NC(=O)[C@H](CO)NC(=O)[C@@H](NC(=O)[C@H](Cc1ccccc1)NC(=O)[C@@H](NC(=O)CNC(=O)[C@H](CCC(=O)O)NC(=O)C(C)(C)NC(=O)[C@H](N)Cc1ccc(O)cc1)[C@@H](C)O)[C@@H](C)O)[C@@H](C)CC)[C@@H](C)CC)C(=O)N[C@@H](C)C(=O)NCC(=O)NCC(=O)N1CCC[C@H]1C(=O)N[C@@H](CO)C(=O)N[C@@H](CO)C(=O)NCC(=O)N[C@@H](C)C(=O)N1CCC[C@H]1C(=O)N1CCC[C@H]1C(=O)N1CCC[C@H]1C(=O)N[C@@H](CO)C(N)=O [Example 340] (H-[dY][Aib]EGTFTSDYSI[αMeL]LDKK([AEEA-AEEA-γGlu-C20 diacid])AQ[Aib]AFIEYLIAGGPSSGAPPPS-NH2) | 0.0107 | 20.1 | 0.0823 | 2.08 | 0.0507 | 250 | 0.252 | 0.45 |
| CC[C@H](C)[C@H](NC(=O)[C@H](CC(C)C)NC(=O)[C@H](Cc1ccc(O)cc1)NC(=O)[C@H](CCC(=O)O)NC(=O)[C@@H](NC(=O)[C@H](Cc1ccccc1)NC(=O)[C@H](C)NC(=O)C(C)(C)NC(=O)[C@H](CCC(N)=O)NC(=O)[C@H](C)NC(=O)[C@H](CCCCNC(=O)COCCOCCNC(=O)COCCOCCNC(=O)CC[C@H](NC(=O)CCCCCCCCCCCCCCCCCCC(=O)O)C(=O)O)NC(=O)[C@H](CCC(=O)O)NC(=O)[C@H](CC(=O)O)NC(=O)[C@H](CC(C)C)NC(=O)[C@](C)(CC(C)C)NC(=O)[C@@H](NC(=O)[C@H](CO)NC(=O)[C@H](Cc1ccc(O)cc1)NC(=O)[C@H](CC(=O)O)NC(=O)[C@H](CO)NC(=O)[C@@H](NC(=O)[C@H](Cc1ccccc1)NC(=O)[C@@H](NC(=O)CNC(=O)[C@H](CCC(=O)O)NC(=O)C(C)(C)NC(=O)[C@H](N)Cc1ccc(O)cc1)[C@@H](C)O)[C@@H](C)O)[C@@H](C)CC)[C@@H](C)CC)C(=O)N[C@@H](C)C(=O)NCC(=O)NCC(=O)N1CCC[C@H]1C(=O)N[C@@H](CO)C(=O)N[C@@H](CO)C(=O)NCC(=O)N[C@@H](C)C(=O)N1CCC[C@H]1C(=O)N1CCC[C@H]1C(=O)N1CCC[C@H]1C(=O)N[C@@H](CO)C(N)=O [Example 341] (H-[dY][Aib]EGTFTSDYSI[αMeL]LDEK([AEEA-AEEA-γGlu-C20 diacid])AQ[Aib]AFIEYLIAGGPSSGAPPPS-NH2; N-terminus assumed) | 0.0188 | 21.9 | 0.238 | 6.49 | 0.0559 | 39.7 | 0.373 | 0.496 |
| CC[C@H](C)[C@H](NC(=O)[C@H](CC(C)C)NC(=O)[C@H](Cc1ccc(O)cc1)NC(=O)[C@H](CCC(=O)O)NC(=O)[C@@H](NC(=O)[C@H](Cc1ccccc1)NC(=O)[C@H](CCC(=O)O)NC(=O)C(C)(C)NC(=O)[C@H](CCC(N)=O)NC(=O)[C@H](C)NC(=O)[C@H](CCCCNC(=O)COCCOCCNC(=O)COCCOCCNC(=O)CC[C@H](NC(=O)CCCCCCCCCCCCCCCCCCC(=O)O)C(=O)O)NC(=O)[C@H](CCC(=O)O)NC(=O)[C@H](CC(=O)O)NC(=O)[C@H](CC(C)C)NC(=O)[C@](C)(CC(C)C)NC(=O)[C@@H](NC(=O)[C@H](CO)NC(=O)[C@H](Cc1ccc(O)cc1)NC(=O)[C@H](CC(=O)O)NC(=O)[C@H](CO)NC(=O)[C@@H](NC(=O)[C@H](Cc1ccccc1)NC(=O)[C@@H](NC(=O)CNC(=O)[C@H](CCC(=O)O)NC(=O)C(C)(C)NC(=O)[C@H](N)Cc1ccc(O)cc1)[C@@H](C)O)[C@@H](C)O)[C@@H](C)CC)[C@@H](C)CC)C(=O)N[C@@H](C)C(=O)NCC(=O)NCC(=O)N1CCC[C@H]1C(=O)N[C@@H](CO)C(=O)N[C@@H](CO)C(=O)NCC(=O)N[C@@H](C)C(=O)N1CCC[C@H]1C(=O)N1CCC[C@H]1C(=O)N1CCC[C@H]1C(=O)N[C@@H](CO)C(N)=O [Example 342] (H-[dY][Aib]EGTFTSDYSI[αMeL]LDEK([AEEA-AEEA-γGlu-C20 diacid])AQ[Aib]EFIEYLIAGGPSSGAPPPS-NH2; N-terminus assumed) | 0.035 | 20.7 | 0.159 | 15.4 | 0.129 | > 1000 | 0.127 | 0.414 |
